Laboratory results: ChEMBL document CHEMBL1201862, “PubChem BioAssay data set” (2004)
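Exposure lasted 48 hours, with cells grown in 96-well plates and compounds tested at five concentrations. At the GI50, growth is halved.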 Activity calls are given as the source filed them. No stated cut-off is given here; in the data, active = GI50 up to about 1.1 µM and inactive = higher.

Tests used:
Assay in all cases: inhibition of tumour cell growth, NCI panel, 48 h
[1] = test system: HOP-62
[2] = test system: EKVX
[3] = test system: HCT-116
[4] = test system: LOX IMVI
[5] = test system: SW-620
[6] = test system: HCC 2998
[7] = test system: NCI-H23
[8] = test system: Malme-3M
[9] = test system: M14
[10] = test system: OVCAR-3
[11] = test system: IGROV-1
[12] = test system: SF-295
[13] = test system: MDA-N
[14] = test system: SK-MEL-2
[15] = test system: COLO 205
[16] = test system: SNB-75
[17] = test system: HT-29
[18] = test system: SF-539
[19] = test system: MOLT-4
[20] = test system: SK-MEL-28
[21] = test system: BT-549
[22] = test system: SF-268
[23] = test system: TK-10
[24] = test system: U-251
[25] = test system: HCT-15
[26] = test system: UACC-257
[27] = test system: CCRF-CEM
[28] = test system: RXF 393
[29] = test system: KM12
[30] = test system: NCI-H460
[31] = test system: MDA-MB-435
[32] = test system: SNB-19
[33] = test system: OVCAR-4
[34] = test system: HL-60
[35] = test system: DU-145
[36] = test system: SK-MEL-5
[37] = test system: 786-0
[38] = test system: NCI-H522
[39] = test system: K562
[40] = test system: MCF7
[41] = test system: OVCAR-8
[42] = test system: HOP-92
[43] = test system: NCI-H226
[44] = test system: UO-31
[45] = test system: ACHN
[46] = test system: OVCAR-5
[47] = test system: PC-3
[48] = test system: UACC-62
[49] = test system: NCI/ADR-RES
[50] = test system: RPMI-8226
[51] = test system: SR
[52] = test system: CAKI-1
[53] = test system: SK-OV-3
[54] = test system: A498
[55] = test system: A549
[56] = test system: SN12C
[57] = test system: Hs-578T
[58] = test system: T47D
[59] = test system: MDA-MB-231

`c1ccc(Nc2nnc(-c3ccccc3Nc3ccccc3-c3nnc(Nc4ccccc4)s3)s2)cc1` was tested, and the GI50 [1] was > 100 µM (inactive), the GI50 [2] was > 100 µM (inactive) and the GI50 [3] was > 100 µM (inactive). The GI50 [4] was > 100 µM (inactive), the GI50 [5] was > 100 µM (inactive) and the GI50 [6] was > 100 µM (inactive). The GI50 [7] was > 100 µM (inactive), the GI50 [8] was > 100 µM (inactive) and the GI50 [9] was > 100 µM (inactive). For the same molecule, the GI50 [10] was > 100 µM (inactive), the GI50 [11] was 7.14 µM (inactive) and the GI50 [12] was > 100 µM (inactive). The GI50 [13] was > 100 µM (inactive), the GI50 [14] was > 100 µM (inactive) and the GI50 [15] was > 100 µM (inactive). The GI50 [16] was > 100 µM (inactive), the GI50 [17] was > 100 µM (inactive) and the GI50 [18] was > 100 µM (inactive). The GI50 [19] was 61.7 µM (inactive), the GI50 [20] was > 100 µM (inactive) and the GI50 [21] was > 100 µM (inactive). For the same molecule, the GI50 [22] was > 100 µM (inactive), the GI50 [23] was > 100 µM (inactive) and the GI50 [24] was > 100 µM (inactive). For the same molecule, the GI50 [25] was greater than 100 µM, the GI50 [26] was > 100 µM (inactive) and the GI50 [27] was > 100 µM (inactive). The GI50 [28] was > 100 µM (inactive), the GI50 [29] was > 100 µM (inactive) and the GI50 [30] was > 100 µM (inactive). The GI50 [31] was > 100 µM (inactive), the GI50 [32] was > 100 µM (inactive) and the GI50 [33] was > 100 µM (inactive). The GI50 [34] was > 100 µM (inactive), the GI50 [35] was > 100 µM (inactive) and the GI50 [36] was > 100 µM (inactive). The GI50 [37] was > 100 µM (inactive), the GI50 [38] was > 100 µM (inactive) and the GI50 [39] was > 100 µM (inactive). The GI50 [40] was > 100 µM (inactive), the GI50 [41] was > 100 µM (inactive) and the GI50 [42] was 0.703 µM (active). The GI50 [43] was > 100 µM (inactive), the GI50 [44] was > 100 µM (inactive) and the GI50 [45] was > 100 µM (inactive). For the same molecule, the GI50 [46] was > 100 µM (inactive), the GI50 [47] was > 100 µM (inactive) and the GI50 [48] was > 100 µM (inactive). For the same molecule, the GI50 [49] was > 100 µM (inactive).

In the case of `Cc1ccccc1C1CC(=O)CC(c2ccccc2C)C12C(=O)NC(=O)NC2=O` (configuration not stated), the GI50 [1] was > 100 µM (inactive), the GI50 [2] was > 100 µM (inactive) and the GI50 [50] was 26.9 µM (inactive). The GI50 [3] was > 100 µM (inactive), the GI50 [4] was > 100 µM (inactive) and the GI50 [5] was > 100 µM (inactive). For the same molecule, the GI50 [6] was > 100 µM (inactive), the GI50 [7] was > 100 µM (inactive) and the GI50 [8] was > 100 µM (inactive). For the same molecule, the GI50 [9] was > 100 µM (inactive), the GI50 [10] was > 100 µM (inactive) and the GI50 [51] was > 100 µM (inactive). For the same molecule, the GI50 [11] was 62.5 µM (inactive), the GI50 [52] was > 100 µM (inactive) and the GI50 [12] was > 100 µM (inactive). For the same molecule, the GI50 [14] was > 100 µM (inactive), the GI50 [15] was > 100 µM (inactive) and the GI50 [53] was > 100 µM (inactive). For the same molecule, the GI50 [16] was > 100 µM (inactive), the GI50 [17] was > 100 µM (inactive) and the GI50 [54] was > 100 µM (inactive). The GI50 [18] was > 32.4 µM (inactive), the GI50 [19] was > 78.5 µM (inactive) and the GI50 [55] was > 100 µM (inactive). For the same molecule, the GI50 [20] was > 100 µM (inactive), the GI50 [21] was > 100 µM (inactive) and the GI50 [22] was > 100 µM (inactive). For the same molecule, the GI50 [23] was > 100 µM (inactive), the GI50 [24] was > 100 µM (inactive) and the GI50 [25] was greater than 100 µM. The GI50 [26] was > 100 µM (inactive), the GI50 [27] was > 65.3 µM (inactive) and the GI50 [28] was > 100 µM (inactive). For the same molecule, the GI50 [56] was 1.98 µM (inactive), the GI50 [29] was > 100 µM (inactive) and the GI50 [30] was > 88.5 µM (inactive). For the same molecule, the GI50 [31] was > 77.8 µM (inactive), the GI50 [32] was > 100 µM (inactive) and the GI50 [33] was > 62.4 µM (inactive). The GI50 [34] was 55 µM (inactive), the GI50 [35] was > 100 µM (inactive) and the GI50 [36] was > 100 µM (inactive). The GI50 [37] was > 100 µM (inactive), the GI50 [38] was > 75.3 µM (inactive) and the GI50 [39] was > 100 µM (inactive). The GI50 [40] was > 73.6 µM (inactive), the GI50 [41] was > 100 µM (inactive) and the GI50 [57] was > 100 µM (inactive). For the same molecule, the GI50 [42] was 19 µM (inactive), the GI50 [43] was > 100 µM (inactive) and the GI50 [58] was > 100 µM (inactive). The GI50 [59] was > 100 µM (inactive), the GI50 [44] was > 100 µM (inactive) and the GI50 [45] was > 100 µM (inactive). For the same molecule, the GI50 [46] was > 100 µM (inactive), the GI50 [47] was > 100 µM (inactive) and the GI50 [48] was > 100 µM (inactive). For the same molecule, the GI50 [49] was > 100 µM (inactive).
